Results: the supplement of paper PMC11451515

Test system: SEM cells
Test: cell viability relative to DMSO control; higher = less cytotoxic
Conditions: 48 h
Method in brief: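 Before seeding, each leukemia line was adapted for at least four passages in each medium. NOMO1 or SEM cells (500 cells/well) and P12-Ichikawa cells (1000 cells/well) went into 1536-well plates at 5 μl, then received library compounds in DMSO by pin dosing across 11 threefold concentrations, 47 μM to 0.79 nM. Readout was CellTiter-Glo One luminescence after 48 h at 37°C, and viability is given as a per-plate percentage of DMSO wells, with cell-free wells as background.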

[1] = HPLM + 10% dialyzed FBS, 0.000781 µM
[2] = HPLM + 10% dialyzed FBS, 0.00234 µM
[3] = HPLM + 10% dialyzed FBS, 0.00702 µM
[4] = HPLM + 10% dialyzed FBS, 0.0211 µM
[5] = HPLM + 10% dialyzed FBS, 0.0632 µM
[6] = HPLM + 10% dialyzed FBS, 0.19 µM
[7] = HPLM + 10% dialyzed FBS, 0.569 µM
[8] = HPLM + 10% dialyzed FBS, 1.71 µM
[9] = HPLM + 10% dialyzed FBS, 5.12 µM
[10] = HPLM + 10% dialyzed FBS, 15.4 µM
[11] = HPLM + 10% dialyzed FBS, 46.1 µM
[12] = RPMI 5 mM glucose + 10% FBS, 0.000781 µM
[13] = RPMI 5 mM glucose + 10% FBS, 0.00234 µM
[14] = RPMI 5 mM glucose + 10% FBS, 0.00702 µM
[15] = RPMI 5 mM glucose + 10% FBS, 0.0211 µM
[16] = RPMI 5 mM glucose + 10% FBS, 0.0632 µM
[17] = RPMI 5 mM glucose + 10% FBS, 0.19 µM
[18] = RPMI 5 mM glucose + 10% FBS, 0.569 µM
[19] = RPMI 5 mM glucose + 10% FBS, 1.71 µM
[20] = RPMI 5 mM glucose + 10% FBS, 5.12 µM
[21] = RPMI 5 mM glucose + 10% FBS, 15.4 µM
[22] = RPMI 5 mM glucose + 10% FBS, 46.1 µM
[23] = RPMI 5 mM glucose + 10% dialyzed FBS, 0.000781 µM
[24] = RPMI 5 mM glucose + 10% dialyzed FBS, 0.00234 µM
[25] = RPMI 5 mM glucose + 10% dialyzed FBS, 0.00702 µM
[26] = RPMI 5 mM glucose + 10% dialyzed FBS, 0.0211 µM
[27] = RPMI 5 mM glucose + 10% dialyzed FBS, 0.0632 µM
[28] = RPMI 5 mM glucose + 10% dialyzed FBS, 0.19 µM
[29] = RPMI 5 mM glucose + 10% dialyzed FBS, 0.569 µM
[30] = RPMI 5 mM glucose + 10% dialyzed FBS, 1.71 µM
[31] = RPMI 5 mM glucose + 10% dialyzed FBS, 5.12 µM
[32] = RPMI 5 mM glucose + 10% dialyzed FBS, 15.4 µM
[33] = RPMI 5 mM glucose + 10% dialyzed FBS, 46.1 µM

SMILES	cell viability [1]	cell viability [2]	cell viability [3]	cell viability [4]	cell viability [5]	cell viability [6]	cell viability [7]	cell viability [8]	cell viability [9]	cell viability [10]	cell viability [11]	cell viability [12]	cell viability [13]	cell viability [14]	cell viability [15]	cell viability [16]	cell viability [17]	cell viability [18]	cell viability [19]	cell viability [20]	cell viability [21]	cell viability [22]	cell viability [23]	cell viability [24]	cell viability [25]	cell viability [26]	cell viability [27]	cell viability [28]	cell viability [29]	cell viability [30]	cell viability [31]	cell viability [32]	cell viability [33]
N[S+](=O)([O-])c1cccc2c1C(=O)c1cccc(O)c1C2=O	84.4%	95.8%	98.9%	84.2%	91.8%	91.5%	61.6%	59.9%	53.7%	44.1%	3.56%	95.8%	96.3%	102%	68.9%	94.7%	83.2%	51.1%	44.2%	21.9%	4.54%	3.13%	89.4%	102%	96.1%	62.1%	95.1%	70%	40.8%	33.3%	18.3%	24.5%	3.78%
C[C@]12CC[C@H]3[C@@H](CCC/4=C/C(=O)CC[C@]34C)[C@@H]1CC[C@@H]2O	94.2%	120%	124%	128%	118%	139%	122%	120%	136%	125%	130%	107%	110%	118%	112%	139%	129%	118%	133%	140%	157%	109%	129%	113%	120%	121%	112%	130%	153%	134%	130%	131%	145%
O=C(c1ccc(F)c(F)c1Nc1ccc(I)cc1F)N1CC(O)([C@@H]2CCCCN2)C1	75.2%	92.2%	98.2%	99.8%	85.4%	83.6%	105%	97%	69.2%	71.4%	60.8%	98.8%	88.6%	100%	104%	98.1%	100%	92.5%	99.1%	77.8%	71.6%	55.1%	82.8%	96.3%	97.4%	111%	104%	96.6%	86.2%	92.7%	68.5%	76.9%	60.1%
CC[C@H](C)C(=O)O[C@H]1C[C@H](O)\C=C2\C=C/[C@H](C)[C@H](CC[C@@H](O)C[C@@H](O)CC(O)=O)[C@@H]12	118%	114%	116%	111%	125%	129%	121%	126%	103%	106%	92.9%	98.7%	110%	121%	124%	113%	126%	107%	118%	95.8%	108%	102%	123%	109%	121%	125%	129%	109%	121%	110%	119%	120%	86.2%
COC1=CC=CC(=C1N)\C2=C\C(=O)C3=C(O2)C=CC=C3	99.8%	123%	124%	130%	129%	146%	140%	145%	148%	145%	156%	119%	112%	120%	121%	136%	136%	161%	143%	141%	177%	144%	106%	111%	134%	134%	128%	136%	145%	164%	149%	160%	155%
CC(/C=C/C(=O)NO)=C\[C@@H](C)C(=O)c1ccc(N(C)C)cc1	108%	126%	109%	100%	111%	101%	59%	8.01%	3.01%	2.86%	2.07%	112%	117%	115%	97.7%	115%	115%	66.2%	5.17%	3.1%	2.52%	1.53%	102%	112%	116%	105%	106%	102%	56.2%	8.19%	3.94%	3.72%	1.86%
COC1=CC=C(C=C1O)C/2=C/C(=O)C3=C(O2)C=C(O)C=C3O	98%	89.5%	85.9%	95.2%	98.4%	97.9%	92.4%	93.7%	79.6%	65.7%	60.6%	103%	95.4%	113%	94.3%	106%	113%	110%	113%	94.8%	87.9%	63.7%	97.6%	94.8%	105%	104%	102%	87.7%	111%	119%	101%	81.3%	56.8%
CN1CCC[C@@H]1CCO[C@](C)(c1ccccc1)c1ccc(Cl)cc1	85.8%	96.5%	102%	104%	122%	108%	99.1%	115%	111%	104%	81.4%	103%	116%	118%	117%	115%	115%	112%	114%	124%	118%	97.4%	86.1%	110%	107%	104%	114%	121%	109%	116%	115%	118%	93%
[O-]C(=O)C1=C(C(=C(Cl)C(=C1Cl)Cl)Cl)C/2=C/3\C=C(I)/C(=O)/C(=C3OC4=C2C=C(I)C(=C4I)[O-])I	111%	106%	122%	106%	118%	111%	120%	116%	106%	109%	73%	108%	121%	130%	133%	134%	113%	115%	130%	114%	109%	83.2%	–	–	–	–	–	–	–	–	–	–	–
NCCCCNCCCN	74.8%	80.2%	75.4%	89.7%	97.8%	99.5%	87.6%	99.2%	101%	19.7%	3.89%	107%	73.5%	97%	93.9%	108%	110%	99.1%	106%	106%	43.5%	4.26%	88%	83.7%	94.2%	75.6%	106%	103%	93.7%	99.4%	91.9%	21.4%	4.65%
Cc1cc(C(=O)N2CCN(c3cccc(Cl)c3)CC2)n(-c2ccccc2)n1	109%	96.7%	102%	102%	109%	96%	92.5%	52.6%	25.5%	21.7%	18.2%	107%	118%	116%	122%	107%	110%	120%	81.5%	34.8%	17.5%	15.6%	105%	103%	112%	89.4%	114%	100%	93.3%	61.1%	24.4%	19.5%	18.3%
ClC1=CC\2=C(NC(=O)\C(=C2N[C@@H]3CN4CCC3CC4)C5=NC6=C([NH]5)C=CC=C6)C=C1	116%	98.7%	102%	89.2%	53.3%	27.7%	24.2%	21%	8.58%	3.33%	5.63%	95.8%	87.5%	83.9%	71%	67.4%	22.8%	16.2%	11.2%	6.87%	2.16%	2.19%	99.5%	108%	98%	86.8%	63.2%	25.4%	19.1%	15%	8.88%	2.81%	3.39%
CN1c2ccccc2C(=O)N2CCc3c([nH]c4ccccc34)C21 (stereo not drawn)	136%	120%	114%	127%	125%	120%	122%	131%	125%	117%	101%	–	–	–	–	–	–	–	–	–	–	–	111%	105%	120%	114%	104%	112%	125%	109%	102%	89.1%	94.7%
ClC1=CC\2=C(OC3=C(C=CC=C3)\N=C2N4CCNCC4)C=C1	110%	90.9%	114%	108%	117%	116%	112%	105%	119%	95.2%	89%	94.5%	49.6%	95%	90.4%	94.1%	93.3%	103%	99.7%	104%	89.3%	86.8%	104%	80.1%	113%	106%	117%	105%	111%	107%	119%	103%	91%
CC[C@]12\C=C/CN3CC[C@]4([C@@H](N(C)C5=CC(=C(C=C45)[C@]6(C[C@H]7C[C@H](CN(C7)CC8=C6[NH]C9=C8C=CC=C9)C(C)(F)F)C(=O)OC)OC)[C@](O)([C@@H]1OC(C)=O)C(=O)OC)[C@H]23	107%	97.9%	94.9%	74.6%	29.3%	21.1%	22%	22%	25%	17.8%	6.8%	120%	120%	87.4%	76.9%	18.7%	18.8%	17.3%	20.2%	15.6%	11.3%	6.89%	95.3%	83%	74.5%	68.9%	43.2%	21.2%	16.9%	18.9%	21%	15.3%	5.17%
